{
  "source": "PubChem BioAssay (NCI)",
  "experiment_in_all_cases": "inhibition of tumour cell growth, NCI panel, 48 h",
  "key": {"NCI-H522 lung": {"system": "NCI-H522 lung"}, "T-47D breast": {"system": "T-47D breast"}, "MDA-MB-231 breast": {"system": "MDA-MB-231 breast"}, "U251 CNS": {"system": "U251 CNS"}, "HCC-2998 colon": {"system": "HCC-2998 colon"}, "RXF 393 renal": {"system": "RXF 393 renal"}, "SNB-75 CNS": {"system": "SNB-75 CNS"}, "ACHN renal": {"system": "ACHN renal"}, "RPMI-8226 leukemia": {"system": "RPMI-8226 leukemia"}, "SK-MEL-5 melanoma": {"system": "SK-MEL-5 melanoma"}, "HCT-15 colon": {"system": "HCT-15 colon"}, "HOP-62 NSCLC": {"system": "HOP-62 NSCLC"}, "TK-10 renal": {"system": "TK-10 renal"}, "CCRF-CEM leukemia": {"system": "CCRF-CEM leukemia"}, "KM12 colon": {"system": "KM12 colon"}, "DU-145 prostate": {"system": "DU-145 prostate"}, "786-0 renal": {"system": "786-0 renal"}, "SF-539 CNS": {"system": "SF-539 CNS"}, "OVCAR-3 ovarian": {"system": "OVCAR-3 ovarian"}, "UACC-62 melanoma": {"system": "UACC-62 melanoma"}, "M14 melanoma": {"system": "M14 melanoma"}, "SN12C renal": {"system": "SN12C renal"}, "SNB-19 CNS": {"system": "SNB-19 CNS"}, "LOX IMVI melanoma": {"system": "LOX IMVI melanoma"}, "IGROV1 ovarian": {"system": "IGROV1 ovarian"}, "CAKI-1 renal": {"system": "CAKI-1 renal"}, "K-562 leukemia": {"system": "K-562 leukemia"}, "BT-549 breast": {"system": "BT-549 breast"}},
  "note": "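Interpolation was linear, between the two tested concentrations surrounding the appropriate level; five concentrations were tested over 48 hours in 96-well plates. GI50 = concentration required for 50% inhibition of growth. TGI: concentration producing complete growth inhibition.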",
  "data": [
    {"smiles": "O=C(N/N=C/c1ccc(-c2ccc(O)cc2)s1)c1[nH]c2ccc(Br)cc2c1-c1ccccc1", "values": [
      {"measurement": "TGI", "setting": "NCI-H522 lung", "result": 14.3, "unit": "µM"},
      {"measurement": "GI50", "setting": "T-47D breast", "result": 4.6, "unit": "µM"},
      {"measurement": "TGI", "setting": "T-47D breast", "result": 39.4, "unit": "µM"},
      {"measurement": "GI50", "setting": "MDA-MB-231 breast", "result": 3.36, "unit": "µM"},
      {"measurement": "TGI", "setting": "MDA-MB-231 breast", "result": 11.5, "unit": "µM"},
      {"measurement": "GI50", "setting": "U251 CNS", "result": 3.63, "unit": "µM"},
      {"measurement": "TGI", "setting": "U251 CNS", "result": 15.5, "unit": "µM"},
      {"measurement": "GI50", "setting": "HCC-2998 colon", "result": 3.16, "unit": "µM"},
      {"measurement": "TGI", "setting": "HCC-2998 colon", "result": 10.6, "unit": "µM"},
      {"measurement": "GI50", "setting": "RXF 393 renal", "result": 1.92, "unit": "µM"},
      {"measurement": "TGI", "setting": "RXF 393 renal", "result": 4.56, "unit": "µM"},
      {"measurement": "GI50", "setting": "SNB-75 CNS", "result": 3.27, "unit": "µM"},
      {"measurement": "TGI", "setting": "SNB-75 CNS", "result": 12.4, "unit": "µM"},
      {"measurement": "GI50", "setting": "ACHN renal", "result": 2.92, "unit": "µM"},
      {"measurement": "TGI", "setting": "ACHN renal", "result": 10.9, "unit": "µM"},
      {"measurement": "GI50", "setting": "RPMI-8226 leukemia", "result": 3.14, "unit": "µM"},
      {"measurement": "TGI", "setting": "RPMI-8226 leukemia", "result": "> 100", "unit": "µM"},
      {"measurement": "GI50", "setting": "SK-MEL-5 melanoma", "result": 1.87, "unit": "µM"},
      {"measurement": "TGI", "setting": "SK-MEL-5 melanoma", "result": 4.16, "unit": "µM"},
      {"measurement": "GI50", "setting": "HCT-15 colon", "result": 2.72, "unit": "µM"},
      {"measurement": "TGI", "setting": "HCT-15 colon", "result": 10.6, "unit": "µM"},
      {"measurement": "GI50", "setting": "HOP-62 NSCLC", "result": 6.32, "unit": "µM"},
      {"measurement": "TGI", "setting": "HOP-62 NSCLC", "result": 23.6, "unit": "µM"},
      {"measurement": "GI50", "setting": "TK-10 renal", "result": 5.05, "unit": "µM"},
      {"measurement": "TGI", "setting": "TK-10 renal", "result": 19.3, "unit": "µM"},
      {"measurement": "GI50", "setting": "CCRF-CEM leukemia", "result": 2.46, "unit": "µM"},
      {"measurement": "TGI", "setting": "CCRF-CEM leukemia", "result": "> 100", "unit": "µM"},
      {"measurement": "GI50", "setting": "KM12 colon", "result": 2.77, "unit": "µM"},
      {"measurement": "TGI", "setting": "KM12 colon", "result": 9.53, "unit": "µM"},
      {"measurement": "GI50", "setting": "DU-145 prostate", "result": 4.48, "unit": "µM"},
      {"measurement": "TGI", "setting": "DU-145 prostate", "result": 15.7, "unit": "µM"},
      {"measurement": "GI50", "setting": "786-0 renal", "result": 2.16, "unit": "µM"},
      {"measurement": "TGI", "setting": "786-0 renal", "result": 9.19, "unit": "µM"},
      {"measurement": "GI50", "setting": "SF-539 CNS", "result": 2.76, "unit": "µM"},
      {"measurement": "TGI", "setting": "SF-539 CNS", "result": 8.43, "unit": "µM"},
      {"measurement": "GI50", "setting": "OVCAR-3 ovarian", "result": 3.38, "unit": "µM"},
      {"measurement": "TGI", "setting": "OVCAR-3 ovarian", "result": 13.6, "unit": "µM"},
      {"measurement": "GI50", "setting": "UACC-62 melanoma", "result": 2.65, "unit": "µM"},
      {"measurement": "TGI", "setting": "UACC-62 melanoma", "result": 10, "unit": "µM"},
      {"measurement": "GI50", "setting": "M14 melanoma", "result": 2.75, "unit": "µM"},
      {"measurement": "TGI", "setting": "M14 melanoma", "result": 10.5, "unit": "µM"},
      {"measurement": "GI50", "setting": "SN12C renal", "result": 3.48, "unit": "µM"},
      {"measurement": "TGI", "setting": "SN12C renal", "result": 13, "unit": "µM"},
      {"measurement": "GI50", "setting": "SNB-19 CNS", "result": 4.01, "unit": "µM"},
      {"measurement": "TGI", "setting": "SNB-19 CNS", "result": 14, "unit": "µM"},
      {"measurement": "GI50", "setting": "LOX IMVI melanoma", "result": 2, "unit": "µM"},
      {"measurement": "TGI", "setting": "LOX IMVI melanoma", "result": 5.51, "unit": "µM"},
      {"measurement": "GI50", "setting": "IGROV1 ovarian", "result": 3.45, "unit": "µM"},
      {"measurement": "TGI", "setting": "IGROV1 ovarian", "result": 12.9, "unit": "µM"},
      {"measurement": "GI50", "setting": "CAKI-1 renal", "result": 3.46, "unit": "µM"},
      {"measurement": "TGI", "setting": "CAKI-1 renal", "result": 13.8, "unit": "µM"},
      {"measurement": "GI50", "setting": "K-562 leukemia", "result": 2.95, "unit": "µM"},
      {"measurement": "TGI", "setting": "K-562 leukemia", "result": "> 100", "unit": "µM"},
      {"measurement": "GI50", "setting": "BT-549 breast", "result": 2.95, "unit": "µM"},
      {"measurement": "TGI", "setting": "BT-549 breast", "result": 9.97, "unit": "µM"}
    ]}
  ]
}
